Test results from patent US10598672B2, “Methods and compositions for diagnosing and treating loss and/or distortion of taste or smell” (Cyrano Therapeutics, Inc., priority 2014, dated 2020).
Marks after values point to notes of the source that are not given here.

Assays:
patients with hyposmia [1] = assay: Olfactometry: DT, RT, ME and H for pyridine, nitrobenzene, thiophene, amyl acetate; format: in vivo, human
patients with hyposmia [2] = details: previous open-label controlled clinical trial, 312 patients with hyposmia and hypogeusia, oral; cited from earlier work
[3] = test system: patients with taste dysfunction; assay: Gustometry: DT, RT, ME (and HR) for NaCl, sucrose, HCl, urea; format: in vivo, human
Method: Smell and taste functions under each study condition were measured by standardized psychophysical sensory testing techniques. Measurements included determination of detection thresholds (DTs), recognition thresholds (RTs), magnitude estimation (ME), and hedonic response (HR) for 4 odors (i.e., pyridine [dead fish], nitrobenzene [bitter almond], thiophene [petroleum], and amyl acetate [banana oil]) (olfactometry) and for 4 tastants (i.e., sodium chloride [salt], sucrose [sweet], hydrochloride [sour], and urea [bitter]) (gustometry). These techniques have been previously described with olfactometry confirmed in a prior controlled double-blind clinical trial. Each measurement was performed independent of any prior knowledge of response.
Gustometry measurements included measurements of detection (DT) and recognition (RT) thresholds and magnitude estimation (ME) for four tastants [NaCl (salt), sucrose (sweet), HCl (sour) and urea (bitter)]. Abnormalities of taste function were measured by increased DT or RT above normal (decreased sensitivity) and/or decreased ME (decreased sensitivity) for one or more of the tastants presented.

[4] = oral theophylline dose 200 mg (6 patients)
[5] = oral theophylline dose 400 mg (6 patients)
[6] = oral theophylline dose 600 mg (14 patients)
[7] = oral theophylline dose 800 mg (5 patients)
[8] = TH[…] (81) patients with taste dysfunction, Mean ± SEM
[9] = after intranasal treatment vs before treatment or after oral treatment
[10] = after oral treatment vs before treatment

Cn1c(=O)c2[nH]cnc2n(C)c1=O [theophylline]
AMYL ACETATE RT (patients with hyposmia [1]; [4]): 8.6 ± 1.9 BU
PYRIDINE DT (patients with hyposmia [1]; [4]): 8.4 ± 0.8 BU
PYRIDINE H (patients with hyposmia [1]; [4]): −34 ± 13%
PYRIDINE ME (patients with hyposmia [1]; [4]): 35 ± 15%
PYRIDINE RT (patients with hyposmia [1]; [4]): 9.8 ± 0.9 BU
THIOPHENE DT (patients with hyposmia [1]; [4]): 8.2 ± 1.8 BU
THIOPHENE H (patients with hyposmia [1]; [4]): −14 ± 11%
THIOPHENE RT (patients with hyposmia [1]; [4]): 8.8 ± 2.0 BU
Thiophene magnitude estimation (%) (patients with hyposmia [1]; [4]): 10 ± 15 BU
AMYL ACETATE DT (patients with hyposmia [1]; [5]): 6.0 ± 1.0 BU
AMYL ACETATE H (patients with hyposmia [1]; [5]): 0 ± 0%
AMYL ACETATE ME (patients with hyposmia [1]; [5]): 17 ± 10%
AMYL ACETATE RT (patients with hyposmia [1]; [5]): 6.2 ± 1.7 BU
PYRIDINE DT (patients with hyposmia [1]; [5]): 7.0 ± 1.8 BU
PYRIDINE H (patients with hyposmia [1]; [5]): −35 ± 15%
PYRIDINE ME (patients with hyposmia [1]; [5]): 43 ± 12%
PYRIDINE RT (patients with hyposmia [1]; [5]): 7.8 ± 2.2 BU
THIOPHENE DT (patients with hyposmia [1]; [5]): 6.2 ± 1.9 BU
THIOPHENE H (patients with hyposmia [1]; [5]): −6 ± 1%
THIOPHENE RT (patients with hyposmia [1]; [5]): 9.2 ± 2.4 BU
Thiophene magnitude estimation (%) (patients with hyposmia [1]; [5]): 0 ± 0 BU
AMYL ACETATE DT (patients with hyposmia [1]; [6]): 5.0 ± 1.2^c BU
AMYL ACETATE H (patients with hyposmia [1]; [6]): 14 ± 5%
AMYL ACETATE ME (patients with hyposmia [1]; [6]): 24 ± 8%
AMYL ACETATE RT (patients with hyposmia [1]; [6]): 5.4 ± 1.2^b BU
PYRIDINE DT (patients with hyposmia [1]; [6]): 5.2 ± 0.9^d BU
PYRIDINE H (patients with hyposmia [1]; [6]): −10 ± 8%
PYRIDINE ME (patients with hyposmia [1]; [6]): 50 ± 8%
PYRIDINE RT (patients with hyposmia [1]; [6]): 5.8 ± 1.1^d BU
THIOPHENE DT (patients with hyposmia [1]; [6]): 6.2 ± 1.1 BU
THIOPHENE H (patients with hyposmia [1]; [6]): −19 ± 7%
THIOPHENE RT (patients with hyposmia [1]; [6]): 7.9 ± 1.0 BU
Thiophene magnitude estimation (%) (patients with hyposmia [1]; [6]): 26 ± 7 BU
AMYL ACETATE DT (patients with hyposmia [1]; [7]): 4.0 ± 1.3^d BU
AMYL ACETATE H (patients with hyposmia [1]; [7]): 15 ± 12%
AMYL ACETATE ME (patients with hyposmia [1]; [7]): 17 ± 11%
AMYL ACETATE RT (patients with hyposmia [1]; [7]): 4.5 ± 1.0^b BU
PYRIDINE DT (patients with hyposmia [1]; [7]): 2.8 ± 1.2^a BU
PYRIDINE H (patients with hyposmia [1]; [7]): −20 ± 13%
PYRIDINE ME (patients with hyposmia [1]; [7]): 36 ± 15%
PYRIDINE RT (patients with hyposmia [1]; [7]): 4.0 ± 1.8^d BU
THIOPHENE DT (patients with hyposmia [1]; [7]): 4.0 ± 1.5^d BU
THIOPHENE H (patients with hyposmia [1]; [7]): −15 ± 16%
THIOPHENE RT (patients with hyposmia [1]; [7]): 5.2 ± 1.4 BU
Thiophene magnitude estimation (%) (patients with hyposmia [1]; [7]): 29 ± 16 BU
patients in whom hyposmia was successfully corrected (patients with hyposmia [2]): more than 50%
NaCl DT, Detection Threshold [3, 8]: 3.4 ± 0.2^
NaCl ME, Magnitude Estimation [3, 8]: 58 ± 5
NaCl RT, Recognition Threshold [3, 8]: 3.6 ± 0.2
SCl DT, Detection Threshold [3, 8]: 3.6 ± 0.2
SCl ME, Magnitude Estimation [3, 8]: 54 ± 5
SCl RT, Recognition Threshold [3, 8]: 3.7 ± 0.3
SUCROSE DT, Detection Threshold [3, 8]: 3.3 ± 0.2
SUCROSE ME, Magnitude Estimation [3, 8]: 49 ± 5
SUCROSE RT, Recognition Threshold [3, 8]: 3.6 ± 0.2
UREA DT, Detection Threshold [3, 8]: 3.9 ± 0.3
UREA ME, Magnitude Estimation [3, 8]: 54 ± 5
UREA RT, Recognition Threshold [3, 8]: 3.9 ± 0.3
DTs and RTs for all tastants [3, 9]: lower (more sensitive)
HRs for sucrose [3, 9]: more positive (more pleasant)
Hedonic responses for sodium chloride, hydrochloride, and urea [3, 9]: more negative (more unpleasant)
Magnitude estimations for all tastants [3, 9]: higher (more intense)
DTs for sucrose and hydrochloride and RTs for sodium chloride, hydrochloride, and urea [3, 10]: decreased (more sensitive)
HR for hydrochloride and urea [3, 10]: increased (more unpleasant)
Magnitude estimations for all tastants [3, 10]: increased (more sensitive)
gustometric functions ([3]; patients with taste dysfunction, oral treatment): improving gustometric functions
